These results are taken from BindingDB's records for doi:10.1016/0960-894X(95)00044-T (1995).

A value given as a limit tells only on which side of the number the result lay.

This experiment concerns the target DNA. Kind of experiment: Inhibition of calf thymus DNA/ethidium bromide complex formation.
The EC50 is the concentration giving half of the maximal effect. High values mean a less potent agent, low ones a more potent agent. `Cc1cc(-c2c(F)cc3c4nn(C)c(=O)c-4cn(C4CC4)c3c2F)cc(C)n1` [5-Cyclopropyl-7-(2,6-dimethyl-pyridin-4-yl)-6,8-difluoro-2-methyl-2,5-dihydro-pyrazolo[4,3-c]quinolin-3-one]: the EC50 is more than 60 µM.

As to `CC(=O)N[C@H]1CC[C@H](n2nc3c4cc(F)c(-c5cc(C)nc(C)c5)c(F)c4n(C4CC4)cc-3c2=O)CC1` [N-{4-[5-Cyclopropyl-7-(2,6-dimethyl-pyridin-4-yl)-6,8-difluoro-3-oxo-3,5-dihydro-pyrazolo[4,3-c]quinolin-2-yl]-cyclohexyl}-acetamide], the concentration for a half-maximal effect (EC50) is more than 51 µM.

`Cc1cc(-c2c(F)cc3c4nn(-c5ccccc5)c(=O)c-4cn(C4CC4)c3c2F)cc(C)n1` [5-Cyclopropyl-7-(2,6-dimethyl-pyridin-4-yl)-6,8-difluoro-2-phenyl-2,5-dihydro-pyrazolo[4,3-c]quinolin-3-one] displayed an EC50 of more than 60 µM.

The compound `Cc1cc(-c2c(F)cc3c4nn(C5CCN(C)CC5)c(=O)c-4cn(C4CC4)c3c2F)cc(C)n1` [5-Cyclopropyl-7-(2,6-dimethyl-pyridin-4-yl)-6,8-difluoro-2-(1-methyl-piperidin-4-yl)-2,5-dihydro-pyrazolo[4,3-c]quinolin-3-one] returned an EC50 of more than 50 µM.

For the compound `Cc1cc(-c2c(F)cc3c4nn(CCN(C)C)c(=O)c-4cn(C4CC4)c3c2F)cc(C)n1` [5-Cyclopropyl-2-(2-dimethylamino-ethyl)-7-(2,6-dimethyl-pyridin-4-yl)-6,8-difluoro-2,5-dihydro-pyrazolo[4,3-c]quinolin-3-one], it took 0.93 µM to reach a half-maximal effect (EC50).

On to `Cc1cc(-c2c(F)cc3c4n[nH]c(=O)c-4cn(C4CC4)c3c2F)cc(C)n1` [5-Cyclopropyl-7-(2,6-dimethyl-pyridin-4-yl)-6,8-difluoro-2,5-dihydro-pyrazolo[4,3-c]quinolin-3-one], for which it took 27 µM to reach a half-maximal effect (EC50).

`CC(=O)N[C@H]1CC[C@@H](n2nc3c4cc(F)c(-c5cc(C)nc(C)c5)c(F)c4n(C4CC4)cc-3c2=O)CC1` [N-{4-[5-Cyclopropyl-7-(2,6-dimethyl-pyridin-4-yl)-6,8-difluoro-3-oxo-3,5-dihydro-pyrazolo[4,3-c]quinolin-2-yl]-cyclohexyl}-acetamide] gave an EC50 of more than 52 µM.

`Cc1cc(-c2c(F)cc3c4nn(CCNCCO)c(=O)c-4cn(C4CC4)c3c2F)cc(C)n1` [5-Cyclopropyl-7-(2,6-dimethyl-pyridin-4-yl)-6,8-difluoro-2-[2-(2-hydroxy-ethylamino)-ethyl]-2,5-dihydro-pyrazolo[4,3-c]quinolin-3-one] returned an EC50 of 1.2 µM.

The compound `Cc1cc(-c2c(F)cc3c4nn(C5CCC(C)CC5)c(=O)c-4cn(C4CC4)c3c2F)cc(C)n1` (stereo unspecified) [5-Cyclopropyl-7-(2,6-dimethyl-pyridin-4-yl)-6,8-difluoro-2-(4-methyl-cyclohexyl)-2,5-dihydro-pyrazolo[4,3-c]quinolin-3-one] came in with an EC50 of more than 50 µM.

The compound `Cc1cc(-c2c(F)cc3c4nn(CCO)c(=O)c-4cn(C4CC4)c3c2F)cc(C)n1` [5-Cyclopropyl-7-(2,6-dimethyl-pyridin-4-yl)-6,8-difluoro-2-(2-hydroxy-ethyl)-2,5-dihydro-pyrazolo[4,3-c]quinolin-3-one] came in with an EC50 of more than 60 µM.

As to `Cc1cc(-c2c(F)cc3c4nn([C@H]5CC[C@H](N(C)C)CC5)c(=O)c-4cn(C4CC4)c3c2F)cc(C)n1` [5-Cyclopropyl-2-(4-dimethylamino-cyclohexyl)-7-(2,6-dimethyl-pyridin-4-yl)-6,8-difluoro-2,5-dihydro-pyrazolo[4,3-c]quinolin-3-one], the EC50 is more than 50 µM.

Compound `Cc1cc(-c2c(F)cc3c4nn(C5CCCCC5)c(=O)c-4cn(C4CC4)c3c2F)cc(C)n1` [2-Cyclohexyl-5-cyclopropyl-7-(2,6-dimethyl-pyridin-4-yl)-6,8-difluoro-2,5-dihydro-pyrazolo[4,3-c]quinolin-3-one] displayed an EC50 of more than 50 µM.

Compound `Cc1cc(-c2c(F)cc3c4nn(CCCN(C)C)c(=O)c-4cn(C4CC4)c3c2F)cc(C)n1` [5-Cyclopropyl-2-(3-dimethylamino-propyl)-7-(2,6-dimethyl-pyridin-4-yl)-6,8-difluoro-2,5-dihydro-pyrazolo[4,3-c]quinolin-3-one] returned an EC50 of more than 50 µM.

Compound `Cc1cc(-c2c(F)cc3c4nn([C@H]5CC[C@@H](N(C)C)CC5)c(=O)c-4cn(C4CC4)c3c2F)cc(C)n1` [5-Cyclopropyl-2-(4-dimethylamino-cyclohexyl)-7-(2,6-dimethyl-pyridin-4-yl)-6,8-difluoro-2,5-dihydro-pyrazolo[4,3-c]quinolin-3-one] gave an EC50 of more than 50 µM.

Compound `Cc1cc(-c2c(F)cc3c(=O)c(C(=O)O)cn(C4CC4)c3c2F)cc(C)n1` [WIN-57294] displayed an EC50 of more than 54 µM.

In turn, `Cc1cc(-c2c(F)cc3c4nn(C5CCOCC5)c(=O)c-4cn(C4CC4)c3c2F)cc(C)n1` [5-Cyclopropyl-7-(2,6-dimethyl-pyridin-4-yl)-6,8-difluoro-2-(tetrahydro-pyran-4-yl)-2,5-dihydro-pyrazolo[4,3-c]quinolin-3-one] returned an EC50 of more than 50 µM.

In turn, `CCOC(=O)Cn1nc2c3cc(F)c(-c4cc(C)nc(C)c4)c(F)c3n(C3CC3)cc-2c1=O` [[5-Cyclopropyl-7-(2,6-dimethyl-pyridin-4-yl)-6,8-difluoro-3-oxo-3,5-dihydro-pyrazolo[4,3-c]quinolin-2-yl]-acetic acid ethyl ester] gave an EC50 of more than 60 µM.

`Cc1cc(-c2c(F)cc3c4nn(CC(=O)O)c(=O)c-4cn(C4CC4)c3c2F)cc(C)n1` [[5-Cyclopropyl-7-(2,6-dimethyl-pyridin-4-yl)-6,8-difluoro-3-oxo-3,5-dihydro-pyrazolo[4,3-c]quinolin-2-yl]-acetic acid] came in with an EC50 of more than 60 µM.

For the compound `Cc1cc(-c2c(F)cc3c(=O)ccn(C4CC4)c3c2F)cc(C)n1` [1-Cyclopropyl-7-(2,6-dimethyl-pyridin-4-yl)-6,8-difluoro-1H-quinolin-4-one], the half-maximal effective concentration (EC50) is more than 55 µM.

The compound `Cc1cc(-c2c(F)cc3c4nn([C@H]5CC[C@@H](N)CC5)c(=O)c-4cn(C4CC4)c3c2F)cc(C)n1` [2-(4-Amino-cyclohexyl)-5-cyclopropyl-7-(2,6-dimethyl-pyridin-4-yl)-6,8-difluoro-2,5-dihydro-pyrazolo[4,3-c]quinolin-3-one] displayed an EC50 of more than 50 µM.

On to `Cc1cc(-c2c(F)cc3c4nn([C@H]5CC[C@H](N)CC5)c(=O)c-4cn(C4CC4)c3c2F)cc(C)n1` [2-(4-Amino-cyclohexyl)-5-cyclopropyl-7-(2,6-dimethyl-pyridin-4-yl)-6,8-difluoro-2,5-dihydro-pyrazolo[4,3-c]quinolin-3-one], for which the EC50 was more than 50 µM.
